We go through 22 compounds from US11878975B2, “Substituted indole compounds useful as TLR inhibitors” (BRISTOL-MYERS SQUIBB COMPANY, priority 2017, dated 2024).

Format in all cases: cell-based
Test [1] has as its target T1, human TLR7 (Homo sapiens, UniProt Q9NYK1).
T1 construct: host or cells: HEK-Blue cells
T1 sequence (Q9NYK1 27-1049): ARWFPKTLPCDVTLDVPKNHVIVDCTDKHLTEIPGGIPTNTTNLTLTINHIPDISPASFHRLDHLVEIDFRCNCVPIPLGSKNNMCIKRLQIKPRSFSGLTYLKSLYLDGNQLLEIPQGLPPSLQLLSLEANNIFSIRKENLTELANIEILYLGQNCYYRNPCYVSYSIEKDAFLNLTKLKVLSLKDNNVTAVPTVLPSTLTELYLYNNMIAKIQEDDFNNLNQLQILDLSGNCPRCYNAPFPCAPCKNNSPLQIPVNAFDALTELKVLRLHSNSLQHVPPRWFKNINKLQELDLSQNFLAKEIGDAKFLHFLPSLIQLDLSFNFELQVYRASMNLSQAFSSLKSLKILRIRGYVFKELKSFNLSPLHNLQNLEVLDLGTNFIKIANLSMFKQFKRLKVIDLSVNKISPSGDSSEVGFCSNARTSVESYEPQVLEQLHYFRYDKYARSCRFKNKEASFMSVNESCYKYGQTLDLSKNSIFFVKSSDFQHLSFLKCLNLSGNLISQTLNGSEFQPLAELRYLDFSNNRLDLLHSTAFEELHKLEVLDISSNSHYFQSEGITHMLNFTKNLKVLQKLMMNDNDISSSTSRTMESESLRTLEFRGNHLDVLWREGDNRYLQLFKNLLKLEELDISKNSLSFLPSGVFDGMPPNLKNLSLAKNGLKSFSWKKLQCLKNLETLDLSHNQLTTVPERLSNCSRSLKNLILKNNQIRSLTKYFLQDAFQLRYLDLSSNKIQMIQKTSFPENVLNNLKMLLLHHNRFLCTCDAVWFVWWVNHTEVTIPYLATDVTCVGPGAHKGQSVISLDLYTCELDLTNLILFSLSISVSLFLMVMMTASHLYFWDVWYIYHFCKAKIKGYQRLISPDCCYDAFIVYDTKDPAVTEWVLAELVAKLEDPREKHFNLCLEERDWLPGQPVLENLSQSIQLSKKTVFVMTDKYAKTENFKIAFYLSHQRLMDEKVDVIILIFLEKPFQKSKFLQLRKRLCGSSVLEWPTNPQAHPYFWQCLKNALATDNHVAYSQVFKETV
Kind of test: TLR7 inhibition reporter assay (HEK-Blue cells, SEAP reporter, gardiquimod stimulation). The note with it: HEK-Blue cells overexpressing human TLR7, SEAP reporter, gardiquimod 7.5 μM. The gist of the method: (§1)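 Ligand levels: TLR7 gardiquimod 7.5 μM, TLR8 R848 15.9 μM, TLR9 ODN2006 5 nM, added after 30 min room-temperature compound pre-incubation at 0.05 nM-50 μM. Reporter SEAP read with HEK-Blue Detection reagent after 22 h, 37° C. Inhibition expressed as % reduction relative to agonist-plus-DMSO and known-inhibitor controls.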

Test [2] addresses T2, human TLR9 (Homo sapiens, UniProt Q9NR96).
T2 construct: host or cells: HEK-Blue cells
T2 sequence (Q9NR96 26-1032): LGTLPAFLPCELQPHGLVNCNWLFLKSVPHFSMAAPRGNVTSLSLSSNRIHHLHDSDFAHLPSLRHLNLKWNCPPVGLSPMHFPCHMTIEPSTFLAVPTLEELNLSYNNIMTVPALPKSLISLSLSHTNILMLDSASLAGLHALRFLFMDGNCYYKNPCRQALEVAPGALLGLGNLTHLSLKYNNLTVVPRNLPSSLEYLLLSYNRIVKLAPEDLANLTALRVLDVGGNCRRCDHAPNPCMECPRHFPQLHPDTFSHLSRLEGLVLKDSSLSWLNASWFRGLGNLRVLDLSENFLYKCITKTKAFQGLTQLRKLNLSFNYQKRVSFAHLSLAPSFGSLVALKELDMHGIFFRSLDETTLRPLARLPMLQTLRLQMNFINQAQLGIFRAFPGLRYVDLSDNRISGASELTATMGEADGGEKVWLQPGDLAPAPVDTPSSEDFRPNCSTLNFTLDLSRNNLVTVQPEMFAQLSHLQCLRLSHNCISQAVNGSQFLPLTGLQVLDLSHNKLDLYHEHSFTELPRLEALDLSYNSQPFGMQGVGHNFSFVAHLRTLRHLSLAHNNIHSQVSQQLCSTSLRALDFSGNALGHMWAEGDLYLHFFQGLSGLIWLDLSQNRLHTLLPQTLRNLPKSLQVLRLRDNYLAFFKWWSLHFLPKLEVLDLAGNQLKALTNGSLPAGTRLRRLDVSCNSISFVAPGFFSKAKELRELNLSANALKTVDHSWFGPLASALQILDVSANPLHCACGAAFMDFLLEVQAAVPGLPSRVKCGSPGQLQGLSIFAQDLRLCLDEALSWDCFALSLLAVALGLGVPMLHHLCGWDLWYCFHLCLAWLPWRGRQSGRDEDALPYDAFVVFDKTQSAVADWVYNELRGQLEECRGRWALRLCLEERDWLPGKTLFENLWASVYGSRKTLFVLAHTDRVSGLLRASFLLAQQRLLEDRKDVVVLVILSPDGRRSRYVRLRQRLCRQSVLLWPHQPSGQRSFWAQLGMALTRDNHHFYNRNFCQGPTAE
The experiment in a line: TLR9 inhibition reporter assay (HEK-Blue cells, SEAP reporter, ODN2006 stimulation). The settings on record: HEK-Blue cells overexpressing human TLR9, SEAP reporter, ODN2006 5 nM. The method, boiled down:
as §1

The target in test [3] is T3, human TLR8 (Homo sapiens, UniProt Q9NR97).
T3 construct: host or cells: HEK-Blue cells
T3 sequence (Q9NR97 27-1041): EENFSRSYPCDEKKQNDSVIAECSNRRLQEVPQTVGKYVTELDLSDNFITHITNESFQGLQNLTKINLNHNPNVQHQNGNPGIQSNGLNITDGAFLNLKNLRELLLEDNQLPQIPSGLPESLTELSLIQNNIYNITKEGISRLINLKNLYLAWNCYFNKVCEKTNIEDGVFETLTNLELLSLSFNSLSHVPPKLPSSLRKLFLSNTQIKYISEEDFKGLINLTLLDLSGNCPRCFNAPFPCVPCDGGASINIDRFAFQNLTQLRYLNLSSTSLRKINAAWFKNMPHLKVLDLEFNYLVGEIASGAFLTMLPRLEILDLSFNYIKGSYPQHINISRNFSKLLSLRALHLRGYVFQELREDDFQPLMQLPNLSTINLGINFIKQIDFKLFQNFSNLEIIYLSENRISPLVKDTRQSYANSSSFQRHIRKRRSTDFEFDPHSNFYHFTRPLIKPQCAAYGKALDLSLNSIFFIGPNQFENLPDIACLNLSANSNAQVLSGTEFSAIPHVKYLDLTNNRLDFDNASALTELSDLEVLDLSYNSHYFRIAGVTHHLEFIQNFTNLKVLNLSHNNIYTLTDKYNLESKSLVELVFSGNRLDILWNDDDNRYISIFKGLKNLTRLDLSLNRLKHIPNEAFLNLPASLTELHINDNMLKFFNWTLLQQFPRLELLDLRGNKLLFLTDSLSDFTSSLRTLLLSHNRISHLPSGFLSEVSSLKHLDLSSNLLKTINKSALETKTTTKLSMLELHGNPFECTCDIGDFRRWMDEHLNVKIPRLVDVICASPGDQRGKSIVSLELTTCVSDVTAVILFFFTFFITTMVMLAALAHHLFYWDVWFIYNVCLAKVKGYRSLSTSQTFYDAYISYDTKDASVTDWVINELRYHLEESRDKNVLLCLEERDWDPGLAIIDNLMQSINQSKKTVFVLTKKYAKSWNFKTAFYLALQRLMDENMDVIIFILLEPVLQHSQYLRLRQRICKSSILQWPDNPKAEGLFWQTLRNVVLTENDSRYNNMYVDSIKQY
Kind of test: TLR8 inhibition reporter assay (HEK-Blue cells, SEAP reporter, R848 stimulation). The settings on record: HEK-Blue cells overexpressing human TLR8, SEAP reporter, R848 15.9 μM. The gist of the method:
as §1

Turning to `Cc1cc(-c2[nH]c3ccc(C4CN(C5COC5)CCO4)cc3c2C(C)C)cc(C)n1` (stereo not drawn) [Example 304], the 50% inhibitory concentration (IC50) in test [1] is 89 nM; in test [2], > 50 µM; in test [3], 108 nM.

Regarding `CNCC(=O)N1CCCC(c2ccc3[nH]c(-c4cn5ncnc5c(C)c4C)c(C(C)C)c3c2)C1` (stereo not drawn) [Example 213], the IC50 is 3 nM in test [1], 6.52 µM in test [2] and 5 nM in test [3].

`Cc1c(-c2[nH]c3ccc(C4CN(C)C4)cc3c2C(C)C)cn2ncnc2c1C` [Example 547]: the IC50 amounted to 0.37 nM in test [1], 4.55 µM in test [2] and 0.67 nM in test [3].

Consider `Cc1c(-c2[nH]c3ccc(CC4CN(C(C)C)C4)cc3c2C(C)C)cn2ncnc2c1C` [Example 435], for which the IC50 in test [1] came out at 10 nM; in test [2] it was 3.41 µM; in test [3], 2.5 nM.

As to `COc1cc(-c2[nH]c3ccc(C4CCC(N5CC(F)(F)C5)CC4)cc3c2C(C)C)cn2ncnc12` (stereo not drawn) [Example 19], the values for the IC50 in test [1], in test [2] and in test [3] were 26 nM, 29.2 µM and 218 nM, respectively.

Take `Cc1cc(-c2[nH]c3ccc(C4CCC(N)CC4)cc3c2C(C)C)cc(C)n1` (stereo not drawn) [Example 5]: the results for the half-inhibitory concentration (IC50) in test [1], in test [2] and in test [3] were 1 nM, 0.597 µM and 14 nM, respectively.

`COc1cc(-c2[nH]c3ccc(C4CCCN(C(=O)CN(C)C)C4)cc3c2C(C)C)cn2ncnc12` (stereo not drawn) [Example 191]: the figures for the IC50 in test [1], in test [2] and in test [3] were 0.34 nM, 1.87 µM and 2.6 nM, respectively.

For the compound `Cc1cc(-c2[nH]c3ccc(C4CN(CC5(C)COC5)CCO4)cc3c2C(C)C)cn2ncnc12` (stereo not drawn) [Example 291], the 50% inhibitory concentration (IC50) in test [1] was 20 nM; in test [2], > 50 µM; in test [3] it was 26 nM.

With `CNCC(=O)N1CCOC(c2ccc3[nH]c(-c4cc(OC)c5ncnn5c4)c(C(C)C)c3c2)C1` (stereo not drawn) [Example 339], the IC50 in test [1] was 1 nM; in test [2], 0.863 µM; in test [3], 6 nM.

For the compound `COc1cc(-c2[nH]c3ccc(C4CCC(N5CCCC(F)(F)C5)CC4)cc3c2C(C)C)cn2ncnc12` (stereo not drawn) [Example 34], the IC50 turned out to be 5 nM in test [1], 20.5 µM in test [2] and 23 nM in test [3].

As to `Cc1c(-c2[nH]c3ccc(C4CNC(C)(C)CO4)cc3c2C(C)C)cn2ncnc2c1C` (stereo not drawn) [Example 370], the IC50 in test [1] was found to be 2 nM; in test [2], 14.8 µM; in test [3], 0.35 nM.

In the case of `COc1cc(-c2[nH]c3ccc(CCN4CCCC4)cc3c2C(C)C)cn2ncnc12` [Example 414], the half-maximal inhibitory concentration (IC50) amounted to 3 nM in test [1], 4.51 µM in test [2] and 4 nM in test [3].

As to `Cc1cc(-c2[nH]c3ccc(C4CCC(NC(=O)CN(C)C)CC4)cc3c2C(C)C)cc(C)n1` (stereo not drawn) [Example 120], the IC50 in test [1] was 4 nM; in test [2], 0.323 µM; in test [3] it was 21 nM.

Take `COc1cc(-c2[nH]c3ccc(C4CNCCO4)cc3c2C(C)C)cn2ncnc12` (stereo not drawn) [Example 285]: the IC50 worked out at 0.43 nM in test [1], 0.959 µM in test [2] and 0.56 nM in test [3].

Turning to `CNC(=O)CNC1CCC(c2ccc3[nH]c(-c4cc(C)nc(C)c4)c(C(C)C)c3c2)CC1` (single isomer, unassigned) [Example 180, 2-((4-(2-(2,6-dimethylpyridin-4-yl)-3-isopropyl-1H-indol-5-yl)cyclohexyl)amino)-N-methylacetamide], the IC50 was 2 nM in test [1], 0.277 µM in test [2] and 4.5 nM in test [3].

On to `Cc1cc(-c2[nH]c3ccc(CC4CCCN4C4CCOCC4)cc3c2C(C)C)cn2ncnc12` (stereo not drawn) [Example 425], for which the IC50 in test [1] came out at 0.72 nM; in test [2] it was 2.49 µM; in test [3], 1.4 nM.

Regarding `Cc1cc(-c2[nH]c3ccc(C4CN(C(=O)CN(C)C)CCO4)cc3c2C(C)C)cc(C)n1` (stereo not drawn) [Example 335], the IC50 was 5 nM in test [1], 0.729 µM in test [2] and 12 nM in test [3].

As to `COc1cc(-c2[nH]c3ccc(C4CCC(NC(=O)CN5CCOCC5)CC4)cc3c2C(C)C)cn2ncnc12` (stereo not drawn) [Example 142], the IC50 in test [1] amounted to 2 nM; in test [2] it was 4.41 µM; in test [3] it was 14 nM.

`Cc1cc(-c2[nH]c3ccc(C4CCC(N5CCOCC5)CC4)cc3c2C(C)C)cn2ncnc12` (stereo not drawn) [Example 103]: the values for the IC50 in test [1], in test [2] and in test [3] were 2 nM, 4.12 µM and 7.4 nM, respectively.

For the compound `COCCC(=O)N1CCCC(c2ccc3[nH]c(-c4cc(C)nc(C)c4)c(C(C)C)c3c2)C1` (stereo not drawn) [Example 208], the values for the IC50 in test [1], in test [2] and in test [3] were 6 nM, > 50 µM and 43 nM, respectively.

For the compound `Cc1c(-c2[nH]c3ccc(C4CC(NC5COC5)C4)cc3c2C(C)C)cn(C)c(=O)c1C` (stereo not drawn) [Example 496], the half-maximal inhibitory concentration (IC50) is 57 nM in test [1], > 50 µM in test [2] and 4.3 nM in test [3].

In the case of `Cc1c(-c2[nH]c3ccc(C4CC(NCCS(C)(=O)=O)C4)cc3c2C(C)C)cn(C)c(=O)c1C` (stereo not drawn) [Example 495], the results for the IC50 in test [1], in test [2] and in test [3] were 38 nM, 20.7 µM and 1.3 nM, respectively.
